Earlier results in patent publication US20260245667A1, “EFFICIENT DETECTION OF DECENTRALIZED BIOMARKERS OF GROUPS OF DNA SEQUENCES IN MICROBIOME DNA” (ALPHABIOME AI LTD, priority 2023, published 2026).

How the values were obtained:
[1] = tested on: methane emissions
[2] = tested on: ruminal methane production; conditions: meta-analyses

Compound	mitigation of methane emissions in vitro ([1]; in vitro)	levels of propionate and butyrate ([1]; partial incubation periods)	methanogenesis inhibition, reduction on average in dairy [2]
C=CCS[S+]([O-])CC=C (stereo not drawn) [Allicin]	up to 38%	elevate	
CC[C@@]1([C@@H]2O[C@@H]([C@H]3O[C@@](O)(CO)[C@H](C)C[C@@H]3C)C[C@@H]2C)CC[C@H]([C@]2(C)CC[C@]3(C[C@H](O)[C@@H](C)[C@@H]([C@@H](C)[C@@H](OC)[C@H](C)C(=O)O)O3)O2)O1 [Monensin]			up to 10%
